Reference: patent publication US8168651B2, “Protein kinase modulators” (Cylene Pharmaceuticals, Inc., priority 2008, dated 2012)

How the values were obtained:
recombinant human CK2 = recombinant human CK2 (Homo sapiens (Human), UniProt P68400); assay: CK2 assay (cell-free, 33P-ATP filter plate); format: biochemical; settings: 500 nM compound, cell-free assay; read-out: CK2: % inh 500 nM
[1] = tested on: HCT-116 human colorectal carcinoma cells; assay: Cell-proliferation assay using Alamar Blue dye; format: cell-based; settings: Homo sapiens, HCT-116, second HCT-116 column (c8); read-out: HCT-116 (uM) cell proliferation modulatory activity;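 further: cells exposed to compound for about 4 days, then Alamar Blue added and dye fluorescence read after about 4 h, compared with medium-only control wells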
recombinant human PIM1 = recombinant human PIM1 (Homo sapiens (Human), UniProt P11309); assay: PIM-1 kinase activity in cell-free in vitro assay; format: biochemical; settings: cell-free assay; for inhibition at 0.5 µM: 500 nM compound, read-out: PIM-1: % inh 500 nM
Chain of recombinant human PIM1 (P11309 whole entry): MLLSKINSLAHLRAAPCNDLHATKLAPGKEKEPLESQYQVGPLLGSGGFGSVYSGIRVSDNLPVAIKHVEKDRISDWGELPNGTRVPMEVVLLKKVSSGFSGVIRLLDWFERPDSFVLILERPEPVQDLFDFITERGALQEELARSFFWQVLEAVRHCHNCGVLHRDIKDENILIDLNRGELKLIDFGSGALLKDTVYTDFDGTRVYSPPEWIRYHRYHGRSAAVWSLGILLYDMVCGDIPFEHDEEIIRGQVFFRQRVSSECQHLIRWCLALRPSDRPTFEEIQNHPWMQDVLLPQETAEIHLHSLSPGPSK

K-562 = assay: Cell proliferation modulatory activity, K-562; format: cell-based; settings: Homo sapiens, K562; K-562 cells
MV-4-11 = assay: Cell proliferation modulatory activity, MV-4-11; format: cell-based; settings: Homo sapiens, MV4-11; MV-4-11 cells

Chain of recombinant human CK2 (P68400 whole entry): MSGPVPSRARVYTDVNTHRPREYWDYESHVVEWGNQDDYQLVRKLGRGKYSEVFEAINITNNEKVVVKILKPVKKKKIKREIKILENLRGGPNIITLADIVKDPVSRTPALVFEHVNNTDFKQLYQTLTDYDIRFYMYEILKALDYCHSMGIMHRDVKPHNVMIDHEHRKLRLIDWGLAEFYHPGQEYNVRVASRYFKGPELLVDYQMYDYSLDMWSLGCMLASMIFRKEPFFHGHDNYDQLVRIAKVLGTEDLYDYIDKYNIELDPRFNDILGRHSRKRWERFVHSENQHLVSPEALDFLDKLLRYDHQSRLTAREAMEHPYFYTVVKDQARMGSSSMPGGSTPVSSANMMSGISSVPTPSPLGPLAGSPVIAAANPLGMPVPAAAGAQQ
Chain of recombinant human CK2 (P67870 whole entry partner): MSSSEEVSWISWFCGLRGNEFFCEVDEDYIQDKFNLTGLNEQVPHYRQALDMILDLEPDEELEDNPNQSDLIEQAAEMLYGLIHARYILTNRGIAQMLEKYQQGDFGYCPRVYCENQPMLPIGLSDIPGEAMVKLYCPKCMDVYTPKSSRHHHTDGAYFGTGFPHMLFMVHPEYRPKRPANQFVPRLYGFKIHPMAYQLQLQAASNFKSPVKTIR

| SMILES | inhibition at 0.5 µM (recombinant human CK2) [%] | IC50 [1] [µM] | inhibition at 0.5 µM (recombinant human PIM1) [%] | IC50 (K-562) [µM] | IC50 (MV-4-11) [µM] | IC50 (recombinant human PIM1) [µM] |
| --- | --- | --- | --- | --- | --- | --- |
| Cc1c(-c2ccccc2)nn(C)c1Nc1nc2cc(C(=O)O)ccc2c2cnccc12 | 76.2 | 2.34 | 26.2 | > 10 | 1.43 |  |
| O=C(O)c1ccc2c(c1)nc(Nc1cccc3ncccc13)c1ccncc12 | 101 | > 10 | 79.1 | > 10 | > 10 | 0.281 |
| O=C(O)c1ccc2c(c1)nc(Nc1cccc3ccccc13)c1ccncc12 | 93.1 | > 10 | 35.7 | > 10 | > 10 |  |
| CCn1c2ccccc2c2cc(Nc3nc4cc(C(=O)O)ccc4c4cnccc34)ccc21 | 98.1 | 9.82 | 32.6 | 0.11 | 3.28 |  |
| Cn1cnnc1-c1cccc(Nc2nc3cc(C(=O)O)ccc3c3cnccc23)c1 | 94.4 | > 10 | 54.9 | > 10 | > 10 | 0.344 |
| Cc1ccc(Nc2nc3cc(C(=O)O)ccc3c3cnccc23)cc1 | 98 | > 10 | 60.6 | 0.132 | 9.31 | 0.478 |
| CCN(c1ccccc1)c1nc2cc(C(=O)O)ccc2c2cnccc12 | 91.8 | > 10 | 28 | 0.339 | > 10 |  |
| Nc1ccc(CCNc2nc3cc(C(=O)O)ccc3c3cnccc23)cc1 | 100 | > 10 | 81.8 | > 10 | > 10 | 0.321 |
| O=C(O)c1ccc2c(c1)nc(Nc1cccc(Cl)c1)c1cccnc12 | 61.1 | > 10 | 59.9 | > 10 | > 10 | 0.634 |
| O=C(O)c1ccc2c(c1)nc(Nc1ccc(F)c(Cl)c1)c1cccnc12 | 19.6 | > 10 | 22.1 | > 10 | > 10 |  |
| C#Cc1cccc(Nc2nc3cc(C(=O)O)ccc3c3ncccc23)c1 | 77.5 | > 10 | 34.9 | > 10 | > 10 |  |
| O=C(O)c1ccc2c(c1)nc(Nc1ccccc1)c1cccnc12 | 25.5 | > 10 | 34.7 | > 10 | > 10 |  |
| O=C(O)c1ccc2c(c1)nc(NCCc1ccccc1)c1cccnc12 | 5.71 | > 10 | 13.7 | > 10 | > 10 |  |
| O=C(O)c1ccc2c(c1)nc(Nc1cccc(F)c1)c1cccnc12 | 35 | > 10 | 37.8 | > 10 | > 10 |  |
| CNc1ncc2c(n1)c(N(C)c1ccccc1)nc1cc(C(=O)O)ccc12 | 94.5 | > 10 | 86.6 | > 10 | > 10 | 0.147 |
| CN(C)c1ncc2c(n1)c(N(C)c1ccccc1)nc1cc(C(=O)O)ccc12 | 14 | > 10 | 12.2 | > 10 | > 10 |  |
| CC(C)Nc1ncc2c(n1)c(N(C)c1ccccc1)nc1cc(C(=O)O)ccc12 | 91.7 | > 10 | 39.9 | > 10 | > 10 |  |
| CCOCCNc1ncc2c(n1)c(N(C)c1ccccc1)nc1cc(C(=O)O)ccc12 | 79.4 | > 10 | 54.9 | > 10 | > 10 | 0.649 |
| c1ccc(Nc2nc3ccccc3c3cnccc23)cc1 | 0.786 | > 10 | 7 | > 10 | 7.04 |  |
| Clc1nc2ccccc2c2cnccc12 | 9.99 | > 10 | -2.61 | > 10 | > 10 |  |
| O=C(O)c1ccc2c(c1)nc(Nc1ccc(Br)cc1)c1ccncc12 | 97.8 | > 10 | 76.7 | > 10 | 5.9 | 0.365 |
| CCN(CC)CCNc1nc2cc(-c3nnn[nH]3)ccc2c2sccc12 | 52.6 | > 10 | 87.3 | > 10 | > 10 | 0.127 |
| CN(C)CCNc1nc2cc(C(=O)NC3CCCCC3)ccc2c2sccc12 | -10.6 | > 10 | -3.1 | > 10 | > 10 |  |
